Consider four compounds from patent US20070066638A1, “RYANODINE RECEPTOR BLOCKERS FOR TREATING PAIN” (priority 2005, published 2007).

Series [1] deals with phenylephrine-induced allodynia in mice. The series is described as follows: Phenylephrine model of transient allodynia. The class given is in vivo. Conditions: maximum score 16. How it is done:
(§1) In mice, it is possible to induce transient allodynia by treating mice with chemical sensitizers. An interperitoneal injection (of a 1 ml/kg volume) of phenylephrine (an alphal receptor agonist) or sulprostone (a EP1 and EP3 prostaglandin receptor agonist) will induce transient allodynia. Alternatively, an intrathecal injection of NMDA (in a 5 ul volume) will also induce transient allodynia. The injected mice are assessed for allodynia once every 5 minutes over a 15-50 min period post injection by light stroking of the flank with a paintbrush. The allodynia response was ranked as follows: 0. No response; 1, mild squeaking with attempts to move away from the paintbrush; 2, vigorous squeaking, biting at the paintbrush and strong efforts to escape. Data is expressed as the average total score for each group. (Each animal can have a maximum score of 16 over the 50-min period.) * indicates significant difference (P<0.05) relative to sulprostone, NMDA or phenylephrine-treated rats.

In series [2] the test system is sulprostone-induced allodynia in mice. The series is described as follows: Sulprostone model of transient allodynia. The series is classed as in vivo. How it is done:
as §1

Series [3] concerns NMDA-induced allodynia in mice. The series is described as follows: NMDA model of transient allodynia. The class given is in vivo. The settings on record: maximum score 16. How it is done:
as §1

For a further series, the system named is rats. The series is described as follows: Rotarod motor performance. The series is classed as in vivo, rat. The settings on record: fifteen minutes post-dosing, acceleration mode 5-15 RPM, in s (unit assumed). From the text: The Rotamex® 4/8 Rota-rod is a device to test the motor performance decrement, performance time, partial or complete ataxia, and the motor coordination in laboratory animals. The principle of this system is to measure the time each animal manages to maintain walking on the moving rod. Drugs or conditions that cause muscular relaxation will interfere with this coordination and agility, causing the animal to fall from a safe height to a grid below.
The animals were conditioned before performing the test. Animals were required to pass three stages of conditioning on the Rota-rod prior to inclusion in the experiment. During the first stage of conditioning, animals were required to perch on the stationary rod for 30 seconds to accustom themselves to the environment.
Rats that fail to perch for 30 seconds will fall to the grid below. The fall alone typically serves as an adequate aversive stimulus and the animals learn to stay on the perch.
In the second stage of conditioning, the animals that passed the first stage of conditioning were then allowed to walk at a constant speed of 5-rpm for 90 seconds. Any animal that fell off the rod during this trial were allowed to fall to the grid below. Animals are required to stay on the rod for 90 seconds in three consecutive trials out of six total trials, or else they were excluded from the study.
In the final stage of conditioning, about 10-30 minutes after the last trial for each animal that passed the first two stages of conditioning, the animals were placed back on the rod in groups of four and allowed to run in an acceleration mode with a start speed of 5 rpm and an end speed of 15 rpm for 90 seconds. […] A mean performance time was calculated for all animals that managed to stay on the rotating rod for at least 80 seconds. […] Mean performance times were calculated and used as pre-drug baseline values. […] Fifteen minutes post-dosing, the animals were placed back on the rod and the mean performance time in acceleration mode (5-15 RPM) is measured again. […]

Another series deals with Sprague-Dawley rats. The series is described as follows: Activity monitor (locomotor activity). The series is classed as in vivo, rat. Conditions: 10 mg/kg intraperitoneal, thirty minutes after injection. How it is done:
Locomotor activity of male Sprague-Dawley rats (Charles River, Wilmington, Mass.) weighing approximately 300 grams was measured thirty minutes following intraperitoneal injection of vehicle or test compound. Test animals were placed in a dark chamber and a Digicom analyzer (Omnitech Electronic, Columbus, Ohio), which records the number of interruptions of an array of 32 photoelectric beams in the X and Y orientation, quantitated exploratory behavior during a five-minute period. Horizonal activity (HD) and total distance (TD) are presented, as well as % vehicle values. * indicates significant difference (P<0.05) relative to vehicle-treated rats.

Series [4] deals with rats with ligated L5 and L6 spinal nerves. The series is described as follows: Spinal nerve (L5/L6) ligation model of chronic pain, tactile allodynia by von Frey hairs. The series is classed as in vivo, rat. Conditions: compared to a saline solution, 30 minutes after drug administration.
The test system of series [5] is ryanodine receptor-channel complex. Conditions: See Biochemistry 2001, 40, 531-542; cited from earlier work.
Series [6] has as its system capsaicin-induced allodynia in Sprague-Dawley rats. The series is described as follows: Capsaicin model, tactile allodynia (von Frey filament). The class given is in vivo, rat. How it is done:
Intraplantar injection of capsaicin, the active ingredient in red hot chili peppers, will induce neurogenic inflammation and transient allodynia.
Methods/subjects: Eight to ten male Sprague-Dawley rats (Charle Rivers, Sprague-Dawley, 200-300 grams) were used in these experiments. Rats received a unitlateral intradermal injection (10 ul) of capsaicin (0.1%) superficially in the mid-plantar surface of the hind paw. A successful injection was confirmed by the apperance of a bleb after intraplantar capsaicin administartion. Capsaicin, the pungent ingredient in hot peppers, has been used to produce hyperalgesia (mildly painful sensory stimuli are perceived as highly painful) in humans. When applied topically or injected into the skin, capsaicin produces burning pain, hyperalgesia to heat within the immediate vicinity of capsaicin application, and mechanical hyperalgesia within a large sorrounding (Hohmann AG, et al.). On the rat hind paw, there are no major subjective behaviour or clinical observations such as marked redness, limping, chronic licking and swelling associated with this model except for the immediate bleb formation of the given agent on the plantar surface right after the injection and as reported in the literature, short term tactile allodynia, extreme thermal […] which persist for one week.
Allodynia Assessment: Rats were placed in Plexiglas cages positioned over an elevated wire mesh platform and habituated to the testing environment for 15 to 25 min before testing. Tactile allodynia was assessed using a single von frey filament (5.18) with a bending force of 10 grams (Dixon). Tactile allodynia refers to a nocifensive behavior elicited by a light touch or innocuous (here, mechanical) stimulus and was operationally defined as a lowering of the threshold for paw withdrawal from punctate mechanical stimulation (Hohmann AG, et al.). The filaments were positioned in contact with the hind paw for a duration of 5 s or until a withdrawal response occurred and repeated 10 consecutive times. This procedure was repeated three times to obtain a total of thirty responses and then averaged. Contralateral testing was also done; no capsaicin was given. Data are presented as paw withdrawl frequency (%). * indicates significant difference (P<0.05) relative to vehicle-treated rats.

Marks after values point to notes of the source that are not given here.

`CNC[C@H](O)c1cccc(O)c1` [PE, phenylephrine]: the Mean pain score in series [1] (PE 100 ng/kg alone) is on record as 11.3 ± 0.9.

In turn, `CS(=O)(=O)NC(=O)CCC/C=C\C[C@H]1C(=O)C[C@@H](O)[C@@H]1/C=C/[C@@H](O)COc1ccccc1` [Sulprostone] returned a Mean pain score in series [2] (Sulprostone (I.P) 300 ng/kg alone, total score, maximum 16) of 14.0 ± 0.5.

As to `O=C1CN(N=Cc2ccc(-c3ccc([N+](=O)[O-])cc3)o2)C(=O)N1` [Dantrolene, 1-[[5-(p-Nitrophenyl)furfurylidene]amino]hydantoin], the Mean pain score was 12.6 ± 1.5 in series [2] (Sulprostone 300 ng/kg + Dantrolene 3 mg/kg, maximum score 16); 9.5 ± 1.9* in series [2] (Sulprostone 300 ng/kg + Dantrolene 10 mg/kg, maximum score 16); 4.8 ± 0.9* in series [2] (Sulprostone 300 ng/kg + Dantrolene 20 mg/kg, maximum score 16); 9.3 ± 0.8* in series [3] (NMDA 100 ng + Dantrolene 3 mg/kg); 7.0 ± 1.0* in series [3] (NMDA 100 ng + Dantrolene 10 mg/kg); 9.4 ± 1.6 in series [1] (PE 100 ng/kg + Dantrolene 3 mg/kg). For the same compound, in series [1] (PE 100 ng/kg + Dantrolene 10 mg/kg), the Mean pain score is 6.5 ± 1.2*. Also, the figures for the “Mean time on bar” value in the series on rats (3 mg/kg IP), with rats (10 mg/kg IP) and in the series on rats (20 mg/kg IP) were 74.33 ± 7.47, 79.67 ± 5.43 and 37.67 ± 10.4*, respectively. In addition, in the series with Sprague-Dawley rats, the HA % vehicle is 82.4%. The compound further yielded a TD % vehicle in the series with Sprague-Dawley rats of 59.4%. For the same compound, the “HA (horizontal activity)” value with Sprague-Dawley rats (five-minute period) is 1125.6 ± 114.5. In the series on Sprague-Dawley rats (five-minute period), the “TD (total distance)” value was 290 ± 48.4. In addition, the “reversal of allodynic pain (tactile allodynia)” value in series [4] (i.p. 300 ng/kg), in series [4] (i.p. 3000 ng/kg), in series [4] (i.p. 100 mg/kg) and in series [4] (i.p. dose of 100 ng/kg) was “reverses the allodynic pain” throughout. Also, the “action on ryanodine receptor-channel complex” value in series [5] is given as “antagonist of the ryanodine receptor-channel complex”. For the same compound, the paw withdrawl frequency is 36 ± 3.7% in series [6] (Injected paw, 15 min after capsaicin, dantrolene 3 mg/kg IP 30 minutes before capsaicin); 8 ± 1.7 * % in series [6] (Injected paw, 30 min after capsaicin, dantrolene 3 mg/kg IP 30 minutes before capsaicin); 7 ± 2.1% in series [6] (Injected paw, 60 min after capsaicin, dantrolene 3 mg/kg IP 30 minutes before capsaicin); 7 ± 0.9% in series [6] (Injected paw, Baseline before Caps., dantrolene 3 mg/kg IP); 5 ± 1.1% in series [6] (Uninjected paw, 15 min., dantrolene 3 mg/kg IP); 2 ± 1.1% in series [6] (Uninjected paw, 30 min., dantrolene 3 mg/kg IP). Also, the paw withdrawl frequency in series [6] (Uninjected paw, 60 min., dantrolene 3 mg/kg IP) is reported as 3 ± 1.3%; in series [6] (Uninjected paw, Baseline, dantrolene 3 mg/kg IP), 5 ± 1%.

In turn, `CN[C@H](CC(=O)O)C(=O)O` [NMDA] displayed a Mean pain score in series [3] (NMDA 100 ng intrathecal alone) of 14.2 ± 1.1.
